Patent US20240083857A1, “2-Methyl-Quinazolines” (Bayer Pharma Aktiengesellschaft, priority 2017, published 2024)

Assays:
[1] = target: Epidermal Growth Factor Receptor (EGFR) (Homo sapiens (Human), UniProt P00533); assay: EGFR kinase assay (TR-FRET); type: biochemical; conditions: values given in μM; read-out: EGFR kinase inhibition IC50
In short: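 Read-out is the 665/620 nm HTRF ratio, from a Tb-cryptate anti-phosphotyrosine antibody and streptavidin-XL665 bound to phosphorylated biotin-peptide substrate. The enzyme, A431-derived EGFR (~3 U/ml), was given 15 min compound pre-binding at 22° C in Hepes pH 7.0 with Mg2+/Mn2+ before reaction.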

[2] = target: human SOS1 (nucleotide exchange of K-Ras^G12C) (Homo sapiens, UniProt Q07889); assay: Biochemical assay 2: K-Ras^G12C activation assay by hSOS1 at high GTP concentration (HTRF); conditions: high GTP; read-out: Assay 2 (KRAS-Activation by SOS high GTP) activity expressed as IC50

Epidermal Growth Factor Receptor (EGFR), sequence (P00533 25-1210): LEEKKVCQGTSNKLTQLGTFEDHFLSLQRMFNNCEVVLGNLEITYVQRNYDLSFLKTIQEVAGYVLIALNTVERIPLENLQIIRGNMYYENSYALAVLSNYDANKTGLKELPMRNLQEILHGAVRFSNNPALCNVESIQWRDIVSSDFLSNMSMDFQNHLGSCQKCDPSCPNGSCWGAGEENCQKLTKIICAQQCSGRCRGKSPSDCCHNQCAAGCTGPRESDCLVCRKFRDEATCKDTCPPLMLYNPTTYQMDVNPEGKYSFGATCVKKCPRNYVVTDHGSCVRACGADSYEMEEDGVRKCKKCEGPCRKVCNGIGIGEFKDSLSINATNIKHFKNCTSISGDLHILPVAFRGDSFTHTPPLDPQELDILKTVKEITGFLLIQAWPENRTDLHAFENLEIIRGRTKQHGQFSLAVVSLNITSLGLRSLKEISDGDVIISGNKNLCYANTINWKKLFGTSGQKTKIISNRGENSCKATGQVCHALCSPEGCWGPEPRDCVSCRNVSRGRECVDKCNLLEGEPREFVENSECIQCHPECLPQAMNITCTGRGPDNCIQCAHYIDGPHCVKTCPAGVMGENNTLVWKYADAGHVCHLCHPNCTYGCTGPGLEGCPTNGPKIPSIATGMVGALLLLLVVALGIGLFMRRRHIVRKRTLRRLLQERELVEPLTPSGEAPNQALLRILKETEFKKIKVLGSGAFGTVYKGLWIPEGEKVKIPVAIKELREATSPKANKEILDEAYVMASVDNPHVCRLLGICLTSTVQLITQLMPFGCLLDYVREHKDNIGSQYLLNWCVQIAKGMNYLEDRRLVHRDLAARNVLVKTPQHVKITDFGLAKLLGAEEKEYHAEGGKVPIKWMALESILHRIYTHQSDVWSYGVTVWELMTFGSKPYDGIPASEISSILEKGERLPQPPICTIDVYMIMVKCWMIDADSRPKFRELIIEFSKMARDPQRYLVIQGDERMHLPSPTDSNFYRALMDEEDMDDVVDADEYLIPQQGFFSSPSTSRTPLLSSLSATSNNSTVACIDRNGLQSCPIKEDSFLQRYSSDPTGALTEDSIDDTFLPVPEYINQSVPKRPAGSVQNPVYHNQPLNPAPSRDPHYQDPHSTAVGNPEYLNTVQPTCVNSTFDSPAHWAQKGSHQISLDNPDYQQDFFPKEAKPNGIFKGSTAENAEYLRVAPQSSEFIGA

| SMILES | IC50 [1] [µM] | IC50 [2] [nM] |
| --- | --- | --- |
| COc1cc2nc(C)nc(NC(C)c3ccc(-c4cccc5[nH]ncc45)s3)c2cc1OC (stereo not shown) [Example 247, N-{1-[5-(1H-indazol-4-yl)thiophen-2-yl]ethyl}-6,7-dimethoxy-2-methylquinazolin-4-amine] | > 20 | 867 |
| C=Cc1ccccc1-c1ccc(C(C)Nc2nc(C)nc3cc(OC)c(OC)cc23)s1 (stereo not shown) [Example 248, N-{1-[5-(2-ethenylphenyl)thiophen-2-yl]ethyl}-6,7-dimethoxy-2-methylquinazolin-4-amine] | > 20 | 8080 |
| COc1cc2nc(C)nc(NC(C)c3ccc(-c4cnn(CC(N)=O)c4)s3)c2cc1OC (stereo not shown) [Example 249, 2-[4-(5-{1-[(6,7-dimethoxy-2-methylquinazolin-4-yl)amino]ethyl}thiophen-2-yl)-1H-pyrazol-1-yl]acetamide] | > 20 | 5310 |
| CNCc1ccccc1-c1ccc(C(C)Nc2nc(C)nc3cc(OC)c(OC)cc23)s1 (stereo not shown) [Example 250, 6,7-dimethoxy-2-methyl-N-[1-(5-{2-[(methylamino)methyl]phenyl}thiophen-2-yl)ethyl]quinazolin-4-amine] | > 20 | 58.1 |
| COc1cc2nc(C)nc(NC(C)c3csc(-c4cnn(CCO)c4)c3)c2cc1OC (stereo not shown) [Example 251, 2-[4-(4-{1-[(6,7-dimethoxy-2-methylquinazolin-4-yl)amino]ethyl}thiophen-2-yl)-1H-pyrazol-1-yl]ethanol] | > 20 | 5840 |
| COc1cc2nc(C)nc(NC(C)c3ccc(-c4ccccc4CN)s3)c2cc1OC (stereo not shown) [Example 252, N-[1-{5-[2-(aminomethyl)phenyl]thiophen-2-yl}ethyl]-6,7-dimethoxy-2-methylquinazolin-4-amine] | > 20 | 74.1 |
| COc1cc2nc(C)nc(NC(C)c3csc(-c4cnc5n4CCC5)c3)c2cc1OC (stereo not shown) [Example 253, N-{1-[5-(6,7-dihydro-5H-pyrrolo[1,2-a]imidazol-3-yl)thiophen-3-yl]ethyl}-6,7-dimethoxy-2-methylquinazolin-4-amine] | > 20 | 2330 |
| COc1cc2nc(C)nc(NC(C)c3csc(-c4cnn(CCN5CCCC5)c4)c3)c2cc1OC (stereo not shown) [Example 254, 6,7-dimethoxy-2-methyl-N-[1-(5-{1-[2-(pyrrolidin-1-yl)ethyl]-1H-pyrazol-4-yl}thiophen-3-yl)ethyl]quinazolin-4-amine] | > 20 | 1590 |
| COc1cc2nc(C)nc(NC(C)c3csc(-c4ccc(F)cc4CN)c3)c2cc1OC (stereo not shown) [Example 255, N-[1-{5-[2-(aminomethyl)-4-fluorophenyl]thiophen-3-yl}ethyl]-6,7-dimethoxy-2-methylquinazolin-4-amine] | > 20 | 317 |
| COc1cc2nc(C)nc(N[C@H](C)c3cccc(-c4cnn(CCO)c4)c3)c2cc1OC [Example 256, 2-[4-(3-{(1R)-1-[(6,7-dimethoxy-2-methylquinazolin-4-yl)amino]ethyl}phenyl)-1H-pyrazol-1-yl]ethanol] | > 20 | 828 |
| COc1cc2nc(C)nc(N[C@H](C)c3cccc(-c4cnn(CCN5CCCC5)c4)c3)c2cc1OC [Example 257, 6,7-dimethoxy-2-methyl-N-[(1R)-1-(3-{1-[2-(pyrrolidin-1-yl)ethyl]-1H-pyrazol-4-yl}phenyl)ethyl]quinazolin-4-amine] | > 20 | 754 |
